Test: xn = mol fraction of the nth substance listed
Settings: Liquid; for speed of sound: Pulse-echo method

CCCCCCCCCCCC [dodecane] + CCCCCCC
Settings	mass density [kg/m3]	speed of sound [m/s]
298.15 K, 91180 kPa, x2 = 0.5003	–	1642.1
298.15 K, 101320 kPa, x2 = 0.1014	–	1704.4
298.15 K, 101320 kPa, x2 = 0.4999	–	1676
298.15 K, 101320 kPa, x2 = 0.5003	–	1676.4
298.16 K, 101 kPa, x2 = 0	–	1278.9
298.16 K, 101 kPa, x2 = 0.3002	–	1246.5
298.16 K, 101 kPa, x2 = 0.3996	726.184	–
298.16 K, 101 kPa, x2 = 0.6	713.735	1205.1
298.16 K, 101 kPa, x2 = 0.8995	–	1151.9
298.16 K, 15200 kPa, x2 = 0	–	1365.9
298.16 K, 15200 kPa, x2 = 0.3007	–	1336
298.16 K, 15200 kPa, x2 = 0.4999	–	1314.6
298.16 K, 15200 kPa, x2 = 0.7007	–	1286.6
298.16 K, 30390 kPa, x2 = 0	–	1440
298.16 K, 30390 kPa, x2 = 0.3007	–	1413
298.16 K, 30390 kPa, x2 = 0.7007	–	1368.2
298.16 K, 45580 kPa, x2 = 0	–	1507
298.16 K, 45590 kPa, x2 = 0.3007	–	1481.9
298.16 K, 60790 kPa, x2 = 0	–	1568
298.16 K, 75990 kPa, x2 = 0	–	1625.2
298.16 K, 75990 kPa, x2 = 0.3007	–	1602.7
298.16 K, 91180 kPa, x2 = 0	–	1677.7
298.16 K, 91180 kPa, x2 = 0.3007	–	1656.7
298.16 K, 91180 kPa, x2 = 0.7007	–	1623.2
298.16 K, 101320 kPa, x2 = 0	–	1711.1
298.16 K, 101320 kPa, x2 = 0.3007	–	1690.7
298.16 K, 101320 kPa, x2 = 0.7007	–	1658.1
298.17 K, 101 kPa, x2 = 0.7002	–	1188.8
298.17 K, 101 kPa, x2 = 0.8	–	1171.2
298.17 K, 15200 kPa, x2 = 0.1014	–	1356.6
298.17 K, 15200 kPa, x2 = 0.8496	–	1264.5
298.17 K, 30390 kPa, x2 = 0.8496	–	1348.6
298.17 K, 45590 kPa, x2 = 0.8496	–	1422.9
298.17 K, 60790 kPa, x2 = 0.8496	–	1489.9
298.17 K, 75990 kPa, x2 = 0.8496	–	1551
298.17 K, 91180 kPa, x2 = 0.8496	–	1608.3
298.17 K, 101320 kPa, x2 = 0.8496	–	1644.1
298.18 K, 101 kPa, x2 = 0.1007	–	1268.9
298.18 K, 101 kPa, x2 = 0.3996	–	1233.8
298.18 K, 101 kPa, x2 = 0.5002	–	1219.9
298.18 K, 30390 kPa, x2 = 0.1014	–	1431.7
298.19 K, 101 kPa, x2 = 0.2001	–	1258.1
303.12 K, 15200 kPa, x2 = 0.9391	–	1228.3
303.12 K, 30390 kPa, x2 = 0.9391	–	1315.5
303.12 K, 30390 kPa, x2 = 0.97	–	1312
303.12 K, 45590 kPa, x2 = 0.9391	–	1392
303.12 K, 45590 kPa, x2 = 0.97	–	1388.9
303.12 K, 60790 kPa, x2 = 0.9391	–	1461.1
303.12 K, 60790 kPa, x2 = 0.97	–	1458.4
303.12 K, 75990 kPa, x2 = 0.9391	–	1523.8
303.12 K, 75990 kPa, x2 = 0.97	–	1521.5
303.12 K, 91180 kPa, x2 = 0.9391	–	1582
303.12 K, 91180 kPa, x2 = 0.97	–	1579.9
303.12 K, 101320 kPa, x2 = 0.9391	–	1618.9
303.12 K, 101320 kPa, x2 = 0.97	–	1616.9
303.13 K, 15200 kPa, x2 = 0.97	–	1224
303.13 K, 101320 kPa, x2 = 0.1014	–	1691.2
303.13 K, 101320 kPa, x2 = 0.5003	–	1663
303.14 K, 101 kPa, x2 = 0.6	–	1184.8
303.14 K, 101 kPa, x2 = 0.8995	–	1130.7
303.14 K, 15200 kPa, x2 = 0.1014	–	1339.1
303.14 K, 15200 kPa, x2 = 0.4999	–	1296.5
303.14 K, 30390 kPa, x2 = 0	–	1423.8
303.14 K, 30390 kPa, x2 = 0.1014	–	1415.2
303.14 K, 30390 kPa, x2 = 0.4999	–	1376.6
303.14 K, 30390 kPa, x2 = 0.5003	–	1376.5
303.14 K, 45590 kPa, x2 = 0	–	1491.4
303.14 K, 45590 kPa, x2 = 0.1014	–	1483.5
303.14 K, 45590 kPa, x2 = 0.3007	–	1466.1
303.14 K, 45590 kPa, x2 = 0.4999	–	1448
303.14 K, 45590 kPa, x2 = 0.5003	–	1448.1
303.14 K, 60790 kPa, x2 = 0	–	1553.1
303.14 K, 60790 kPa, x2 = 0.1014	–	1545.7
303.14 K, 60790 kPa, x2 = 0.4999	–	1512.9
303.14 K, 60790 kPa, x2 = 0.5003	–	1513
303.14 K, 60790 kPa, x2 = 0.7007	–	1491.3
303.14 K, 75990 kPa, x2 = 0	–	1610.9
303.14 K, 75990 kPa, x2 = 0.1014	–	1603.8
303.14 K, 75990 kPa, x2 = 0.4999	–	1572.4
303.14 K, 75990 kPa, x2 = 0.5003	–	1572.6
303.14 K, 75990 kPa, x2 = 0.7007	–	1552
303.14 K, 91180 kPa, x2 = 0	–	1664.1
303.14 K, 91180 kPa, x2 = 0.1014	–	1657.4
303.14 K, 91180 kPa, x2 = 0.3007	–	1642.8
303.14 K, 91180 kPa, x2 = 0.4999	–	1627.9
303.14 K, 91180 kPa, x2 = 0.5003	–	1628.3
303.14 K, 91180 kPa, x2 = 0.7007	–	1609.1
303.14 K, 101320 kPa, x2 = 0	–	1697.4
303.14 K, 101320 kPa, x2 = 0.3007	–	1677
303.14 K, 101320 kPa, x2 = 0.4999	–	1662.6
303.14 K, 101320 kPa, x2 = 0.7007	–	1644.6
303.15 K, 101 kPa, x2 = 0	741.636	1259.3
303.15 K, 101 kPa, x2 = 0.0991	737.456	–
303.15 K, 101 kPa, x2 = 0.2008	732.789	–
303.15 K, 101 kPa, x2 = 0.2998	727.833	–
303.15 K, 101 kPa, x2 = 0.3002	–	1226.7
303.15 K, 101 kPa, x2 = 0.7002	–	1168.2
303.15 K, 101 kPa, x2 = 0.7005	702.52	–
303.15 K, 101 kPa, x2 = 0.7995	694.549	–
303.15 K, 101 kPa, x2 = 0.8486	690.238	–
303.15 K, 101 kPa, x2 = 0.8988	685.588	–
303.15 K, 101 kPa, x2 = 0.9498	680.563	–
303.15 K, 15200 kPa, x2 = 0	–	1348.5
303.15 K, 15200 kPa, x2 = 0.3007	–	1317.9
303.15 K, 15200 kPa, x2 = 0.5003	–	1296.5
303.15 K, 15200 kPa, x2 = 0.7007	–	1268.1
303.15 K, 30390 kPa, x2 = 0.3007	–	1396
303.15 K, 30390 kPa, x2 = 0.7007	–	1351.3
303.15 K, 30390 kPa, x2 = 0.8496	–	1331.4
303.15 K, 45590 kPa, x2 = 0.7007	–	1425
303.15 K, 60790 kPa, x2 = 0.3007	–	1529.4
303.15 K, 75990 kPa, x2 = 0.3007	–	1588.1
303.15 K, 75990 kPa, x2 = 0.8496	–	1536.5
303.15 K, 91180 kPa, x2 = 0.8496	–	1594.2
303.15 K, 101320 kPa, x2 = 0.8496	–	1630.5
303.16 K, 101 kPa, x2 = 0.1007	–	1249.4
303.16 K, 101 kPa, x2 = 0.3996	722.389	1213.9
303.16 K, 101 kPa, x2 = 0.5	716.383	–
303.16 K, 101 kPa, x2 = 0.5002	–	1199.8
303.16 K, 101 kPa, x2 = 0.6	709.824	–
303.16 K, 101 kPa, x2 = 0.8	–	1150.3
303.16 K, 15200 kPa, x2 = 0.8496	–	1245.8
303.16 K, 45590 kPa, x2 = 0.8496	–	1406.8
303.16 K, 60790 kPa, x2 = 0.8496	–	1474.8

— the NIST ThermoML archive (doi:10.1016/j.jct.2008.05.014)
